Article PMC10179701, “Towards Protection of Nucleic Acids from Herbicide Attack: Self-Assembly of Betaines Based on Pillar[5]arene with Glyphosate and DNA” (International Journal of Molecular Sciences, 2023)

Key:
[1] = test system: A549 cells; experiment: MTT assay, combined action of macrocycles with GIS on A549 cells; assay type: cell-based, human; conditions: A549, pillararene 1 × 10^–5 M with GIS 3.47 × 10^–2 M
Method: The ability to inhibit the viability and proliferative activity of A549 cells of macrocycles 1–4 in the presence of GIS was studied using the MTT assay. […] The developed approach opens up the possibility of creating pillar[5]arene-based herbicide antidotes. […]
fresh one with the addition of the test substances.
Then, the medium was aspirated from the wells
and 100 μL of dimethyl sulfoxide was added.
the formazan crystals to dissolve. […]
substances. […] After 24 h of incubation cells were […]

[2] = Dynamic light scattering of macrocycle aggregates in water; assay type: physicochemical; conditions: H2O, 298 K
Method: The next stage of the work was the study of aggregation properties of both previously synthesized ester derivatives of amino acids 1 and 2, and macrocyclic betaine derivatives 3 and 4 by dynamic light scattering (DLS). The study was carried out in water in the 1 × 10^–6–1 × 10^–4 M concentration range (Figures S11–S22). The size of associates increases with decreasing macrocycle 1 concentration in solution (Table 1). A different pattern is observed for betaine derivative 3. Thus, the particles become coarser, and the polydispersity index (PDI) of the systems increased with an increase in compound 3 concentration, which is probably due to the formation of β-sheets by oligopeptide substituents. The presence of two oppositely charged fragments in one substituent leads to the fact that compound 3 becomes similar to surfactant molecules in terms of its aggregation properties.

polydispersity index (PDI) ([2]; 1 × 10^–4 M): 0.36
size of aggregates d ([2]; 1 × 10^–4 M): 127 ± 16 nm
polydispersity index (PDI) ([2]; 1 × 10^–5 M): 0.41
size of aggregates d ([2]; 1 × 10^–5 M): 218 ± 10 nm
polydispersity index (PDI) ([2]; 1 × 10^–6 M): 0.42
size of aggregates d ([2]; 1 × 10^–6 M): 457 ± 65 nm
SMILES: C[N+](C)(CCCNC(=O)COc1cc2c(OCC(=O)NCCC[N+](C)(C)CC(=O)N[C@@H](Cc3ccccc3)C(=O)[O-])cc1Cc1cc(OCC(=O)NCCC[N+](C)(C)CC(=O)N[C@@H](Cc3ccccc3)C(=O)[O-])c(cc1OCC(=O)NCCC[N+](C)(C)CC(=O)N[C@@H](Cc1ccccc1)C(=O)[O-])Cc1cc(OCC(=O)NCCC[N+](C)(C)CC(=O)N[C@@H](Cc3ccccc3)C(=O)[O-])c(cc1OCC(=O)NCCC[N+](C)(C)CC(=O)N[C@@H](Cc1ccccc1)C(=O)[O-])Cc1cc(OCC(=O)NCCC[N+](C)(C)CC(=O)N[C@@H](Cc3ccccc3)C(=O)[O-])c(cc1OCC(=O)NCCC[N+](C)(C)CC(=O)N[C@@H](Cc1ccccc1)C(=O)[O-])Cc1cc(OCC(=O)NCCC[N+](C)(C)CC(=O)N[C@@H](Cc3ccccc3)C(=O)[O-])c(cc1OCC(=O)NCCC[N+](C)(C)CC(=O)N[C@@H](Cc1ccccc1)C(=O)[O-])C2)CC(=O)N[C@@H](Cc1ccccc1)C(=O)[O-] [Compound 4, 4,8,14,18,23,26,28,31,32,35-Decakis-[(N-[3’-dimethyl({oxidocarbonyl[S-benzyl]methyl}aminocarbonylmethyl)ammonio]propyl)aminocarbonylmethoxy]-pillar[5]arene]
change of toxicity on combined action with GIS [1]: No significant differences
